# Tests used:
# [1] = Solubility enhancement of astaxanthin in water solutions of the compounds (HPLC); details: water solution containing 5 mg/mL of compound, excess astaxanthin (1 mg/mL), room temperature, 24 hours, 0.45 μm filter
# [2] = β-carotene alone; cited from earlier work
# [3] = Solubility enhancement of β-carotene in water solutions of the compounds (HPLC); details: 5 mg/mL compound in water, excess β-carotene
Aqueous solubility of astaxanthin in the presence of the compound [1],Visual aspect of the solution with β-carotene [3],Compound,Water solubility [2]
1.2 µg/mL,,"OC[C@H]1O[C@@H]2O[C@H]3[C@H](O)[C@@H](O)[C@@H](O[C@H]4[C@H](O)[C@@H](O)[C@@H](O[C@H]5[C@H](O)[C@@H](O)[C@@H](O[C@H]6[C@H](O)[C@@H](O)[C@@H](O[C@H]7[C@H](O)[C@@H](O)[C@@H](O[C@H]8[C@H](O)[C@@H](O)[C@@H](O[C@H]9[C@H](O)[C@@H](O)[C@@H](O[C@H]1[C@H](O)[C@H]2O)O[C@@H]9CO)O[C@@H]8CO)O[C@@H]7CO)O[C@@H]6CO)O[C@@H]5CO)O[C@@H]4CO)O[C@@H]3CO [Compound 14, γ-cyclodextrin (CAVAMAX W8)]",
0.5 µg/mL,,"OC[C@H]1O[C@@H]2O[C@H]3[C@H](O)[C@@H](O)[C@@H](O[C@H]4[C@H](O)[C@@H](O)[C@@H](O[C@H]5[C@H](O)[C@@H](O)[C@@H](O[C@H]6[C@H](O)[C@@H](O)[C@@H](O[C@H]7[C@H](O)[C@@H](O)[C@@H](O[C@H]8[C@H](O)[C@@H](O)[C@@H](O[C@H]1[C@H](O)[C@H]2O)O[C@@H]8CO)O[C@@H]7CO)O[C@@H]6CO)O[C@@H]5CO)O[C@@H]4CO)O[C@@H]3CO [Compound 15, β-cyclodextrin (CAVAMAX W7)]",
,,CC1=C(/C=C/C(C)=C/C=C/C(C)=C/C=C/C=C(C)/C=C/C=C(C)/C=C/C2=C(C)CCCC2(C)C)C(C)(C)CCC1 [β-carotene],below 1 mg/L
0.7 µg/mL,pale pink color,HP-β-cyclodextrin (CAVASOL W7 HP) [Compound 16],

# — US10662259B2, “Glycogen-based water solubility enhancers” (AZIENDE CHIMICHE RIUNITE ANGELINI FRANCESCO A.C.R.A.F. …, priority 2013, dated 2020)
